According to patent publication US20240269238A1, “Therapeutic Regimens and Methods for Reducing Body Weight in a Subject with Fatty Liver Disease using a GLP-1R and GCGR Agonist” (Spitfire Pharma LLC, priority 2022, published 2024):

Key:
glucagon receptor (GCGR) = glucagon receptor (GCGR) (Homo sapiens, UniProt P47871); assay: cellular assay, agonist activity at GCGR; format: cell-based
Source text: This disclosure relates to a dual agonist peptide(s) as well as pharmaceutical dosage formulations comprising, and methods for using, the same. The dual agonist peptides have affinity for, and in preferred embodiments about equal affinity for, glucagon-like peptide 1 receptor (GLP-1R) and glucagon receptor (GCGR), as may be determined using a cellular assay. In some embodiments, this disclosure provides pharmaceutical dosage formulations configured to induce weight loss in a human being with fatty liver disease. In some embodiments, the human being may, or may not, suffer from type 2 diabetes. In some embodiments, the disclosure provides pharmaceutical dosage formulations configured to reduce pathogenic plasma lipid mediators. As used herein, “pathogenic” serum lipid mediators, included but are not limited to the following reactive lipid species: malondialdehyde (MDA), isolevuglandins (IsoLG), methyglyoxal (MGO), 4-oxononenal (ONE), and 4-hydroxynonenal (HNE). Oxidized phospholipids include 1-palmitoyl-2-oxovaleroyl-sn-glycero-3-phosphorylcholine (POVPC), 1-O-alkyl-2-azelaoyl-sn-glycero-3-phophorylcholine (azPAF), 1-(Palmitoyl)-2-(5-keto-6-octene-dioyl) phosphatidylcholine (KOdiA-PC), 1-palmitoyl-2-F2-isoprostane-sn-glycero-3-phosphocholine (F2IsoP-PC), and 1-palmitoyl-2-(5,6)-epoxyisoprostane E2-sn-glycero-3-phosphocholine (PEIPC). […]

[1] = Phase 1b 24-week NAFLD study (Example 3): safety; format: in vivo, human; settings: for serious and severe AE observed: unrelated to study medication
Source text: Provided herein is disclosure of a 12-week extension study of the study provided in Example 1, providing a 24-week a Phase 1b, randomized, double-blind, placebo-controlled study to assess the effects of pemvidutide (also termed herein as ALT-801), the safety of pemvidutide and effects on weight loss, hepatic fat fraction, anthropometric parameters, lipid metabolism, as well as inflammatory, fibrosis and other markers in diabetic and non-diabetic (type 2 diabetes) overweight and obese (BMI≥28.0 kg/m^2) subjects with NAFLD (defined as liver fat content (LFC) by MRI-PDFF ≥10%; absence of significant fibrosis, defined as FibroScan® LSM ≤10 kPa), alanine aminotransferase (ALT) and aspartate aminotransferase (AST) laboratory values of ≤75 IU/L and HbA1c <9.5. Men and women aged 18-65 years were studied. Diabetic subjects were defined as those that have undergone stable dose (≥3 months) metformin or SLGT-2 therapy and no use of insulin, sulfonylureas, DPP-4, GLP-1 treatment; Ninety-four (94) subjects were enrolled in the initial 12-week Phase 1b NAFLD trial and 83 subjects who completed were invited to receive a total of 12 additional weeks of blinded treatment. Of those subjects, 66 consented to rollover, of which 64 were eligible to participate.
The primary endpoint of this study was a reduction in liver fat content (LFC) by MRI-PDFF at Week 24 compared to Week 0 (zero). Key secondary endpoints include percent (%) weight loss at Week 24 compared to Week 0 (zero), and liver inflammation by alanine aminotransferase (ALT) levels and corrected T1 (cT1) imaging at Week 24 as compared to Week 0 (zero). Adverse events (AEs), including serious and severe AEs, AEs leading to discontinuation, GI tolerability, vital signs, and glycemic control including fasting glucose and HbA1c levels were also measured.

glucagon receptor (GCGR), sequence (P47871 26-477): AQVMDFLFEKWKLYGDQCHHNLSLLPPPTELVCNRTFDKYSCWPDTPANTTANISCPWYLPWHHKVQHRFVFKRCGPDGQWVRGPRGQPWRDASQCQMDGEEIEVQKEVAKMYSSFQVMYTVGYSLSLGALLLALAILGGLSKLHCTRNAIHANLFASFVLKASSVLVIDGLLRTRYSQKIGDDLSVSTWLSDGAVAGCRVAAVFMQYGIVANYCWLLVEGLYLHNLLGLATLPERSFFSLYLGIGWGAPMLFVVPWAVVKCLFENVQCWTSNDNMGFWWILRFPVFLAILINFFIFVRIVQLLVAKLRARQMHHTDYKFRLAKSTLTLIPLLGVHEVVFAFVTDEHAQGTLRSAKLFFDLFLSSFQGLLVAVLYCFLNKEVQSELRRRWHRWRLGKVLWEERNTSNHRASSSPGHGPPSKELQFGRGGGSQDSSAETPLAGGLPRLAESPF

CC[C@H](C)[C@H](NC(=O)[C@H](Cc1ccccc1)NC(=O)[C@H](CCC(=O)O)NC(=O)[C@@H]1CCCCNC(=O)CC[C@H](NC(=O)[C@H](CC(=O)O)NC(=O)[C@H](CC(C)C)NC(=O)[C@H](Cc2ccc(O)cc2)NC(=O)[C@H](CCCCN)NC(=O)[C@H](CO)NC(=O)[C@H](Cc2ccc(O)cc2)NC(=O)[C@H](CC(=O)O)NC(=O)[C@H](CO)NC(=O)[C@@H](NC(=O)[C@H](Cc2ccccc2)NC(=O)[C@@H](NC(=O)CNC(=O)[C@H](CCC(N)=O)NC(=O)C(C)(C)NC(=O)[C@@H](N)Cc2c[nH]cn2)[C@@H](C)O)[C@H](C)O)C(=O)N[C@@H](CCCCNC(=O)C2O[C@@H](OCCCCCCCCCCCCCCCCCC(=O)O)C(O)C(O)[C@@H]2O)C(=O)N[C@@H](C)C(=O)N[C@@H](C)C(=O)N1)C(=O)N[C@@H](CCC(N)=O)C(=O)N[C@@H](Cc1c[nH]c2ccccc12)C(=O)N[C@@H](CC(C)C)C(=O)N[C@@H](CC(C)C)C(=O)N[C@@H](CCC(N)=O)C(=O)N[C@H](C(N)=O)[C@@H](C)O (some centres unmarked) [ALT-801, Pemvidutide]
EC50 (glucagon receptor (GCGR)): ~0.04 nM
serious and severe AE observed ([1]; 1.2 mg): Salmonella infection
serious and severe AE observed ([1]; 1.8 mg): hypertension >3 weeks post last dose of study medication
number of adverse events leading to treatment discontinuation ([1]; 24 weeks): low across the treatment group
overall safety and tolerability ([1]; 24 weeks): safe and tolerable
severity of gastrointestinal-related adverse events (nausea, vomiting, diarrhea, constipation) ([1]; 24 weeks): mild to moderate
significant ALT elevations ([1]; 24 weeks): No significant ALT elevations were reported
number of serious or severe adverse events ([1]; treatment groups, 24 weeks): low and comparable to the placebo group
